Data set [1] deals with T1, Adenosine receptor A2a (Homo sapiens, UniProt P29274).
The target in data set [2] is T2, Adenosine receptor A1 (Homo sapiens, UniProt P30542).
T2 sequence (P30542 whole entry): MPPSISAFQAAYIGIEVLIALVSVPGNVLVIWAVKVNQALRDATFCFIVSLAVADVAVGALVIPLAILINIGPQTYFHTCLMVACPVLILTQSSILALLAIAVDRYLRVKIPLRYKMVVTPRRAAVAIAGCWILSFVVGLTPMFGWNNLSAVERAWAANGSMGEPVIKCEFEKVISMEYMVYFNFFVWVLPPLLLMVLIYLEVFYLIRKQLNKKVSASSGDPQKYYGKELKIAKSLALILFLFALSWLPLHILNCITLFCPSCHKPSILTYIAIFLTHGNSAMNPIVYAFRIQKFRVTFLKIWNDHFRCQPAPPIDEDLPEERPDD
Description: Binding affinity to human adenosine A1 receptor

Data set [3] is described as follows: in vivo. The following applies: plasma.
Description: Cmax in plasma (unknown origin)
Data set [4] concerns the target T1, Adenosine receptor A2a. This is another data set of the same source.
Description: Antagonist activity at human adenosine A2A receptor expressed in CHO cells assessed as inhibition of NECA-induced cAMP production measured by scintillation counter assay
The target of data set [5] is T3, Adenosine receptor A3 (Homo sapiens, UniProt P0DMS8).
T3 sequence (P0DMS8 whole entry): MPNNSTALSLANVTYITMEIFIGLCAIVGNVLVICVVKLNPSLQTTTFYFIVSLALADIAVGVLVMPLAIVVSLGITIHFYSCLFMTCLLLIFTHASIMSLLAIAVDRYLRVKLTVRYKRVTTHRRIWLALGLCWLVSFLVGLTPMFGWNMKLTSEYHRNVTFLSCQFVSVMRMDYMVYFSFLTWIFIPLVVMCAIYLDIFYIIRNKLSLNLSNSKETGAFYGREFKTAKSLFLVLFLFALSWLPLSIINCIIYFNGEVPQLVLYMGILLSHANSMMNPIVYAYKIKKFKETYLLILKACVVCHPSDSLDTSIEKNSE
Description: Antagonist activity at human adenosine A3 receptor expressed in CHO cells assessed as cAMP level measured by enzyme immunoassay

Data set [6] concerns the target T3, Adenosine receptor A3. Briefly: biochemical.
Description: Displacement of [3H]NECA from human adenosine A3 receptor expressed in HeLa cells measured by scintillation counting assay
Data set [7] is described as follows: physchem. The following applies: simulated intestinal fluid.
Description: Solubility of the compound in simulated intestinal fluid
A short description of data set [8]: physchem. The following applies: simulated gastric fluid.
Description: Solubility of the compound in simulated gastric fluid
Data set [9] in a line: physchem. The following applies: water.
Description: Solubility of the compound in water
Data set [10] in a line: physchem. The following applies: phosphate buffered saline.
Description: Solubility of the compound in phosphate buffered saline
The target of data set [11] is T4, Amine oxidase [flavin-containing] B (Homo sapiens, UniProt P27338).
T4 sequence (P27338 whole entry): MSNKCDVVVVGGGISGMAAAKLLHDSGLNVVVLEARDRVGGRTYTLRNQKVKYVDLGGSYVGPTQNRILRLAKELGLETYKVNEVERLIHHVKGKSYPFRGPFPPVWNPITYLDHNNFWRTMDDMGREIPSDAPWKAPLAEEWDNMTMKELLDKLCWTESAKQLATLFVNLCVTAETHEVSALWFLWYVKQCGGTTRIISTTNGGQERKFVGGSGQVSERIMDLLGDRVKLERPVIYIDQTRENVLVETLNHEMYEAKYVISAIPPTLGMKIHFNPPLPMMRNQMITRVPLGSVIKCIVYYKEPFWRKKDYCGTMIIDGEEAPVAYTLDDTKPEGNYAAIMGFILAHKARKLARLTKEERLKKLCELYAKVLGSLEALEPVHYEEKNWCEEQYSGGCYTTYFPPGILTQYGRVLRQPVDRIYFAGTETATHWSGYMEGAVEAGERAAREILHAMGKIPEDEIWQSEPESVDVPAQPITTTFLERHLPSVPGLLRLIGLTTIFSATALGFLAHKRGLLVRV
Description: Inhibition of MAO-B (unknown origin)

The target of data set [12] is T2, Adenosine receptor A1. The source holds these as a separate data set.
Description: Antagonist activity at human adenosine A1A receptor
Data set [13] in a line: in vivo. The following applies: male, Wistar, rat.
Description: Half-life in male Wistar rat
The target in data set [14] is T5, Adenosine receptor A2b (Homo sapiens, UniProt P29275).
T5 sequence (P29275 whole entry): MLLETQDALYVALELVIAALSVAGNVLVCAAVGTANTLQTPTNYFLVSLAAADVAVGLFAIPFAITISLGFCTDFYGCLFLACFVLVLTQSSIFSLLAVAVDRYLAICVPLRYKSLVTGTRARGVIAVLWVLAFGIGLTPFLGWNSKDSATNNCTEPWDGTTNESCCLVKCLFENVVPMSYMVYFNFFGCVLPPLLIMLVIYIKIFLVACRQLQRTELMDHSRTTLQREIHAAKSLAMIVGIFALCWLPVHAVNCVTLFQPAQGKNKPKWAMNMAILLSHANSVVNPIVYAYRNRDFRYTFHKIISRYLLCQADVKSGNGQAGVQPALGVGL
Description: Binding affinity to human adenosine A2B receptor

Data set [15] concerns the target T5, Adenosine receptor A2b. This is another data set of the same source.
Description: Antagonist activity at human adenosine A2B receptor expressed in mouse NIH/3T3 cells assessed as inhibition of NECA-induced IL-6 release
The target in data set [16] is T5, Adenosine receptor A2b. Briefly: Antagonist activity at human adenosine A2B receptor expressed in HEK293 cells assessed as inhibition of cAMP production. Format: functional, cell-based. For orientation: cAMP levels reflect the balance of adenylyl cyclase and phosphodiesterase activity.
Data set [17] is described as follows: in vitro. The following applies: human, liver microsomes.
The nature of data set [18]: in vitro. The following applies: human, Caco-2.
Description: Apparent permeability in human Caco-2 cells
The target of data set [19] is T2, Adenosine receptor A1. In words: Displacement of [3H]CCPA from human adenosine […] receptor expressed in CHO cells measured by radioligand competition assay. It counts as cell-based. A general note: Loss of bound radioactivity is the signal in a displacement assay; it reports binding, not function.
Data set [20] has as its target T1, Adenosine receptor A2a. In words: Displacement of [3H]NECA from human adenosine A2A receptor expressed in CHO cells measured by radioligand competition assay. It counts as cell-based.
Data set [21] is described as follows: in vitro. The following applies: rat, liver microsomes. On the technique in general: Liver microsomes are a subcellular fraction often used to study metabolism.
Description: Stability in rat liver microsomes incubating after 60 mins
For data set [22], the species on record is Rattus norvegicus. In words: animal or person. The following applies: po.
Description: Antiparkinson's activity in L-DOPA induced dyskinesia rat model assessed as reduction in contralateral rotations administered orally
For data set [23], the species on record is Rattus norvegicus. Briefly: animal or person. The following applies: po, 4 h.
Description: Reversal of haloperidol-induced catalepsy in rat administered orally and measured after 4 hrs
The target of data set [24] is T1, Adenosine receptor A2a. In words: biochemical.
Description: Displacement of [3H]ZM-241385 from human adenosine A2A receptor expressed in HEK293 cells incubated for 60 mins and measured by scintillation counting assay
The nature of data set [25]: in vivo. The following applies: male, Wistar, rat, iv, 3 mg/kg.
Description: Half-life in male Wistar rat at 3 mg/kg, iv
In data set [26] the target is T1, Adenosine receptor A2a. Briefly: Binding affinity to human adenosine A2A receptor expressed in HEK293 cells measured by radioligand based assay. It counts as cell-based.

≈ marks a conversion by molar mass, not a printed value.

T1 sequence (P29274 whole entry): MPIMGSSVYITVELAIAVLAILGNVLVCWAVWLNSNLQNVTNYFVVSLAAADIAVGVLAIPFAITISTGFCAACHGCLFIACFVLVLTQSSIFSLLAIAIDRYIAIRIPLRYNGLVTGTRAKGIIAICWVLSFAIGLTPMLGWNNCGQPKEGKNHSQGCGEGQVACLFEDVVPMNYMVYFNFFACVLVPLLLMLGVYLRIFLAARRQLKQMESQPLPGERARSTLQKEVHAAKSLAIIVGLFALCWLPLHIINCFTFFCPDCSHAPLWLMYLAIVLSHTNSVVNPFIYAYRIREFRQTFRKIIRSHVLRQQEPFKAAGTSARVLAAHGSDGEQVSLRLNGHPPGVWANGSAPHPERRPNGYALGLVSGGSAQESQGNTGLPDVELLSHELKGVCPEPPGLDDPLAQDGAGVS

With `Cc1ccc(-c2nc(N)c3cc(Cc4ccccc4)sc3n2)o1`, the figures for the inhibitory constant (Ki) at Adenosine receptor A2a [1] and at Adenosine receptor A1 [2] were 298 nM and 11.1 nM, respectively. Besides, in the data set “in vivo [3]”, the Cmax stood at 5 µM.
With `Nc1nc(CCCc2ccccc2)nc2cn(-c3ccccc3)nc12`, on Adenosine receptor A2a [4], the affinity corresponds to a Ki of 423 nM.
For `CCn1nnc([C@H]2O[C@@H](n3cnc4c(N)nc(NC(C)Cc5ccc(OC)cc5)nc43)[C@H](O)[C@@H]2O)n1` (some centres not stated), the inhibition constant (Ki) at Adenosine receptor A3 [5] is 6 nM; on Adenosine receptor A3 [6], 13 nM.
On to `OC[C@@H]1CCCN1c1ncnc2sc(Nc3cccc(Br)c3)nc12`, for which the solubility in the data set “physchem [7]” was 3500 µg/mL (≈ 8.61 mM); in the data set “physchem [8]”, 3500 µg/mL (≈ 8.61 mM); in the data set “physchem [9]”, 4300 µg/mL (≈ 10.6 mM); in the data set “physchem [10]” it was 4800 µg/mL (≈ 11.8 mM).
On Adenosine receptor A2a [1], `Cn1c(=O)c2c(nc(/C=C/c3cccc(Br)c3)n2C)n(C)c1=O` had a Ki of 28.4 nM. For the same compound, the IC50 in data set [11] stood at 112 nM.
The compound `CCCn1c(Oc2ccc(F)c(F)c2)nc2nc(C3CCCC3)[nH]c2c1=O` gave a Ki at Adenosine receptor A1 [12] of 2 nM. For the same compound, in the data set “in vivo [13]”, the half-life was 2 h.
In the case of `CCCn1c(=O)c2[nH]c(-c3cnn(CC#Cc4cccc(OC(F)(F)F)c4)c3)nc2n(CCC)c1=O`, the Ki at Adenosine receptor A2b [14] came out at 13 nM; on Adenosine receptor A2b [16] it was 8 nM. For the same compound, the IC50 against Adenosine receptor A2b [15] amounted to 107 nM.
With `Nc1cc(-c2ccco2)c2oc(-c3ccco3)nc2c1`, in “in vitro [17]”, the half-life at 0.1 µM was more than 0.683 h. Also, the apparent permeability (Papp) in the data set “in vitro [18]” was determined as 77 ×10⁻⁶ cm/s.
As to `O=c1oc2c(O)cccc2cc1-c1ccc(Br)cc1`, the figures for the Ki at Adenosine receptor A1 [19] and on Adenosine receptor A2a [20] were 2400 nM and 12100 nM, respectively.
`CCCN1CSc2c1ncn(NC(N)=O)c2=N`: the share remaining at 1 h in “in vitro [21]” came out at 86%.
As to `COCCOc1ccc(N2CCN(CCn3c(=O)n(C)c4c3nc(N)n3nc(-c5nccs5)nc43)CC2)c(F)c1`, the ED50 in the data set filed under Rattus norvegicus [22] is 1.2 mg/kg; in the data set listed under Rattus norvegicus [23], 4.49 mg/kg. Moreover, the affinity on Adenosine receptor A2a [24], expressed as Ki, was 0.4 nM. For the same compound, the half-life in “in vivo [25]” was 1 h.
As to `Nc1nc(NCCc2ccc(O)cc2)nc(Nc2nc(-c3ccc(F)cc3)cs2)n1`, on Adenosine receptor A2a [26], the Ki worked out at 1.5 nM.

Usually Ki stands for the equilibrium dissociation constant of an inhibitor or competing ligand from its target. As a reminder, the Cmax is the maximum level reached in the sampled fluid or tissue. The solubility is the concentration that dissolves in the medium under given conditions. Read a high solubility as a readily soluble substance. By IC50 is commonly meant the concentration needed to halve the response being measured. By half-life is commonly meant how long it takes for the measured level to halve. High values mean slow loss, low ones fast loss. Usually Papp stands for the rate of passage across a membrane or cell layer, normalised by area and donor concentration. As usually defined, the fraction remaining is the share of the starting amount still present when the sample was taken. The low end stands for a greater loss, the high end for greater stability. As usually defined, the ED50 is the dose at which the effect has come halfway, by size or by number of responders. A higher ED50 goes with weaker potency.

These data come from ChEMBL document CHEMBL5126505, “Adenosine receptor antagonists: Recent advances and therapeutic perspective” (Eur J Med Chem, 2022).
